We go through one compound from PMC6017563 (Molecules : A Journal of Synthetic Chemistry and Natural …, 2018).

The term AUC(0-inf) denotes total exposure, with the tail of the curve extrapolated. A low value points to low exposure. Usually AUC(0-t) stands for exposure summed from dosing to a finite time, without extrapolation to infinity. Higher therefore signals more exposure. One may read the Vd as the apparent volume that relates the amount in the body to the concentration in plasma or blood. Lower therefore signals confinement near the circulation. By clearance is commonly meant the volume of plasma or blood freed of the substance per unit of time. Read a high clearance as a high capacity for elimination. What is called Cmax is the highest concentration seen after dosing. A word on the bioavailability: it is dose-corrected exposure relative to a reference, in per cent. A higher bioavailability goes with good availability. The term half-life denotes the time needed for the level to fall by half in the phase considered. Read a high half-life as slow decline.

One data set in a line: in vivo. As to conditions: rat; for half-life: plasma. Here is the method:
The PK parameters for each experimental group were estimated by one-compartmental analysis using WinNonlin® software (version 7.0, Pharsight®, a Certara™ Company, Princeton, NJ, USA).
For the vehicle-administered groups (Groups 2 and 5), the above dispersion solution was administered instead of the drug (Table 5). Blood samples were directly drawn from the right jugular vein at predetermined time intervals before administration and at 0.25, 1, 2, 4, 8 h, 1, 2, 3, 4, 5, 6, 7, 11, and 14 days after the drug administration. Approximately 300 μL of blood was collected periodically in heparinized tubes via the catheter and was immediately centrifuged at 12,000 g for 5 min and then stored at −80 °C until analysis.
After being shaken with a vortex mixer for 3 min and centrifuged at 10,000× g for 5 min at room temperature, the upper supernatant was transferred to a clean tube and mixed with 20 µL of acetic acid and 900 µL of methylene chloride by vortex-mixing for 3 min and centrifugation at 10,000× g for 5 min at room temperature. The aqueous upper sample aliquots (10 µL) were directly injected into the UPLC–MS/MS system. Analyses were performed with the following UPLC–MS/MS system: Acquity™ UPLC system (Waters Corp., Milford, MA, USA), Mass Spectrometer (Xevo™ TQ-S, Waters Corp.), HALO peptide ES-C18 column (2.1 mm × 100 mm, 2.7 µm particle size, Advanced Material Technology, Wilmington, DE, USA). The mobile phase consisted of 1% acetic acid in water and 1% acetic acid in acetonitrile with gradient at a flow rate of 0.2 mL/min.
The mass spectrometric detection was performed using an electrospray ionization (ESI) source in positive ionization mode. The optimization of MS parameters was accomplished as follows: capillary voltage, 2.9 kV; ion source temperature, 150 °C; desolvation temperature, 350 °C; flow rate of cone gas, 150 L/h; flow rate of desolation gas, 600 L/h; and pressure of argon gas, 4.5 × 10^−3 mbar, respectively. […] Data acquisition and analysis were performed by Masslynx 4.1 software (Waters Corp., Milford, CT, USA).
The PK and PD analysis was performed by non-compartmental and compartment analysis using WinNonlin® software (version 7.0, Pharsight®, a Certara™ Company, Princeton, NJ, USA). The maximum plasma concentration (Cmax) and the time to reach Cmax (Tmax) were measured by visual observation of the individual plasma concentration–time curve. The AUC0–∞ was integrated by the linear trapezoidal rule from time zero to the final measured concentration and was extrapolated from the final measured concentration to infinity. […] The elimination rate constant k is a value used to describe the rate at which the drug is removed from the biological system. The volume of distribution (Vd), which is the theoretical volume in biological fluid, was calculated as CL divided by the k, and the bioavailability (F) was estimated as the AUC0–∞ obtained from SC administration divided by the AUC0–∞, obtained from IV administration. AUEC could be estimated by numerical integration over all segments of the effect-time curve by the trapezoidal rule without extrapolation to infinity. Because the endogenous testosterone was used as a PD marker in this study, the AUEC value subtracted from the baseline AUEC was used for data analysis.
The PK–PD modeling was conducted to describe the PK–PD relationship, and to estimate model parameters using Berkeley Madonna software (ver. 8.3.14). Berkeley Madonna software is a useful tool for modeling and analysis of various biological systems by solving the various differential equations. […] Consequently, the PD model was established in two steps. First, the baseline model was developed by using the baseline profiles of the vehicle-administered control group. Second, the drug-effect model was established based on the parameters that were estimated from the baseline model.

The test system of the next data set is testosterone in plasma. The data set can be described thus: Testosterone-suppressive effect (plasma testosterone, AUEC, PK-PD model), normal rats. In kind it is in vivo. The following applies: Wistar, baseline AUEC subtracted, mean ± SE, n = 5. From the text:
Leuprolide is a GnRH agonist for the treatment of prostate cancer which is a target disease in this study. In the label of the Lucrin depot, this is indicated for palliative treatment of advanced prostatic cancer. Therefore, we used the testosterone concentration as a PD marker of prostate cancer, and plasma testosterone is one of qualified biomarkers used as outcomes in the therapeutic area of oncology. Since most of the PD responses are expressed as a concentration profile of endogenous substances, it is difficult to calculate the value as a general trapezoidal rule. Scheff et al. introduced several methods for calculating AUEC when baselines differ. In this study, drug-specific AUEC was calculated by subtracting the baseline AUEC from the AUEC calculated by a general method, and these drug-specific AUECs were calculated by dividing them into positive AUECs and negative AUECs. […] There were significant differences between positive and negative AUEC in all experimental groups. When absolute values of positive and negative AUEC were compared, negative AUEC was more than three times higher. […] However, there was no significant difference in AUEC between each group on formulation, species and route of administration. This estimation of AUEC means that it could be used as a method for evaluating the formulation.
The PK–PD model, which describes the mechanism of negative feedback of leuprolide, was selected based on leuprolide mechanism characteristics and biomarker characteristics. […] The equations of the baseline model are as follows:(11) dR/dt = kin−kout·R (12) R0, wistar = 4.353 (13) R0,Iar:COP = 4.094 where kin and kout represent the apparent zero-order rate constant for the production of response and the first-order rate constant for the loss of response, respectively. These were estimated by curve fitting with the vehicle-administered group and used as the basic parameters of the drug-effect model described below (Group 2).
For this, several PD models were attempted, and the final PD model decided on was the tolerance model including the feedback compartment.
The plasma concentration of testosterone in plasma samples of each group was quantified using testosterone enzyme-linked immunosorbent assay (ELISA) kits (R&D Systems, Minneapolis, MN, USA). […]
Determination of the testosterone concentration was performed on using the validated Parameter^TM Testosterone Assay (R&D Systems, Minneapolis, MN, USA) and its process. […] The reaction was stopped when 50 μL of stop solution (2N sulfuric acid) was added, and the optical density of each well was measured using SynergyMX (BioTek, Winooski, VT, USA). All plasma samples were measured twice. […]

The mark [1] stands for this setting: Group 1, leuprolide solution 0.1 mg/kg IV.
The mark [2] stands for this setting: Group 3, leuprolide solution 0.1 mg/kg SC.

With `CCNC(=O)[C@@H]1CCCN1C(=O)[C@H](CCCNC(=N)N)NC(=O)[C@H](CC(C)C)NC(=O)[C@@H](CC(C)C)NC(=O)[C@H](Cc1ccc(O)cc1)NC(=O)[C@H](CO)NC(=O)[C@H](Cc1c[nH]c2ccccc12)NC(=O)[C@H](Cc1c[nH]cn1)NC(=O)[C@@H]1CCC(=O)N1` [leuprolide, Leuprolide (Pyr-His-Trp-Ser-Tyr-D-Leu-Leu-Arg-Pro-NHEt)], in “in vivo” (Wistar, in vivo, iv, 0.1 mg/kg), the AUC(0-inf) stood at 106 ± 17.3 ng·h/mL, the AUC(0-t) was determined as 103 ± 16.9 ng·h/mL, the C0 was found to be 97.1 ± 13 ng/mL and the Vd was found to be 0.193 ± 0.0542 L. This compound also had a clearance in the data set “in vivo” (Wistar, in vivo, iv, 0.1 mg/kg) of 4.14 mL/min. In “in vivo” (Wistar, in vivo, sc, 0.1 mg/kg), this compound showed an AUC(0-inf) of 53.3 ± 9.96 ng·h/mL, an AUC(0-t) of 51.2 ± 9.56 ng·h/mL, a Cmax of 41.5 ± 4.61 ng/mL and a bioavailability of 50.6%. In the data set “in vivo” (Wistar, iv, 0.1 mg/kg), this compound had a half-life of 31.2 ± 6 min. Besides, the half-life in “in vivo” (Wistar, sc, 0.1 mg/kg) was 39.6 ± 1.8 min. Further, in “in vivo” (in vivo), the CL is 514.46 ± 40.10 mL/h, the “F (bioavailability)” value came to 50.6% and the Vd came out at 0.4874 ± 0.02902 L. In the data set with testosterone in plasma (setting [1]), the “Negative AUEC (drug-specific, testosterone-suppressive effect)” value is −1404.30 ± 287.31 and the “Positive AUEC (drug-specific, testosterone flare-up effect)” value stood at 208.24 ± 52.30. In the data set on testosterone in plasma (setting [2]), the “Negative AUEC (drug-specific, testosterone-suppressive effect)” value was −775.98 ± 289.13 and the “Positive AUEC (drug-specific, testosterone flare-up effect)” value turned out to be 220.87 ± 39.56.
